Test results reported in patent US8466289B2, “Heterocyclic sulfonamide derivatives” (Novartis AG, priority 2009, dated 2013).

Experiments:
[1] = tested on: BRAF-MEK-ERK cascade (activated BRAF (V599E), unactive MEK1, unactive MAP Kinase 2/ERK2); assay: BRAF-MEK-ERK enzymatic cascade assay (TR-FRET); type: biochemical, human; settings: compounds screened at 10 μM, 45 minutes pre-incubation with enzymes, 100 μM ATP
Source text: A BRAF-MEK-ERK cascade assay is used to evaluate the effects of the compounds as inhibitors of the MAP kinase pathway. An enzymatic cascade assay is set up using recombinant human activated BRAF (V599E) kinase (Cat No. 14-557), human full length unactive MEK1 kinase (Cat No. 14-706) and human full length unactive MAP Kinase 2/ERK2 (Cat No. 14-536) enzymes procured from Upstate. TR-FRET (Time resolved fluorescence resonance energy transfer) detection technology is used for the read out. The assay buffer solution contains 50 mM Tris pH 7.5, 10 mM MgCl2, 1 mM DTT, 0.01% Tween 20, 0.1 nM activated BRAF, 2 nM unactive MEK1, 10 nM unactive ERK2, 100 μM ATP and 500 nM long chain biotin-peptide substrate (LCB-FFKNIVTPRTPPP) in a 384 well format. The kinase reaction is stopped after 90 minutes with 10 mM EDTA and Lance detection mix (2 nM Eu-labeled phospho-serine/threonine antibody (Cat. No. AD0176-Perkin Elmer), 20 nM SA-APC (Cat No. CR130-100-Perkin Elmer) is added. The TR-FRET signal (Excitation at 340 nm, Emission at 615 nm and 665 nm) is read with 50 μs delay time on a Victor3 V fluorimeter. The data is calculated using the ratio of readings at 665 nm to 615 nm. The final concentration of DMSO is 2.5% in the assay. Compounds are screened at 10 μM concentration with pre-incubation of the enzymes in the presence of test compound for 45 minutes.
Each individual IC50 is determined using a 10 point dose response curve generated by GraphPad Prism software Version 4 (San Diego, Calif., USA) using non linear regression curve fit for sigmoidal dose response (variable slope).
These assays described above are fully detailed in Han, Shulin, et. al., Bioorganic & Medicinal Chemistry Letters (2005) 15, 5467-5473, and in Yeh, et. al., Clin Cancer Res (2007) 13 (5), 1576-1583.
(§1) The compounds of the above Examples were evaluated as inhibitors of the MAP kinase pathway in a BRAF-MEK-ERK enzymatic cascade assay and in the cell viability assay described above.

A375 cells = assay: cell viability assay in A375 cells using XTT; type: cell-based; settings: Homo sapiens, A-375, 72 h, XTT read three days after compound addition
Description: The cell viability assay in A375 cells is set up in a 96-well plate format using XTT.
XTT is a yellow tetrazolium salt that is cleaved to an orange formazan dye by the mitochondria of metabolically active cells. The procedure allows for rapid determination in a microtitre plate, to give reproducible and sensitive results.
A375 cells are grown in DMEM media containing 10% FBS and 1 mM sodium pyruvate. Cells are trypsinized and seeded at 1000 cells/well. After allowing the cells to adhere overnight, compound is added to the wells at the following final concentrations: 10, 3, 1, 0.3, 0.1, 0.03, 0.01, 0.001, and 0.0001 μM. The assay is set up in triplicates for each concentration. DMSO concentrations are kept at 0.5%/well. Three days after compound addition, the XTT assay is performed. Wells are washed once with PBS. 100 μL of DMEM media without phenol red or FBS is added to each well. A working solution of XTT containing 1 mg/ml XTT and 100 μL of PMS (stock concentration 0.383 mg/ml) per 5 ml is prepared. 50 μL of the working solution of XTT is added to each well. Absorbance of the plate is read at 465 nm using a Spectramax 190 (Molecular Devices). The absorbance from wells with media and XTT alone, but without cells is considered the blank and subtracted from readings from all wells.
Percentage viability is calculated considering the blank subtracted value from wells treated with DMSO alone as 100% viable. GI50 values are calculated using Graphpad Prism, using non-linear regression curve fit for sigmoidal dose response (variable slope).
The cell viability assay is further described in Scudiero, et. al., Cancer Research (1988) 48, 4827-4833; Weislow, et. al., J. Natl. Cancer Institute, (1989) 81, 577-586; and Roehm, et. al., J. Immunol. Methods [1991]142:257-265.
as §1

Row | % inhibition [1] [%] | GI50 (A375 cells) [nM] | Compound
1 | 70 |  | Cc1c(Nc2ccc(Br)cc2F)c(NS(=O)(=O)C2CC2)c2n(c1=O)CCN2Cc1ccccc1 [Example 1A, Cyclopropanesulfonic acid [1-benzyl-7-(4-bromo-2-fluoro-phenylamino)-6-methyl-5-oxo-1,2,3,5-tetrahydro-imidazo[1,2-a]pyridin-8-yl]-amide]
2 | 100 | 800 | Cc1c(Nc2ccc(Br)cc2F)c(NS(=O)(=O)C2CC2)c2n(c1=O)CCN2 [Example 2A, Cyclopropanesulfonic acid [7-(4-bromo-2-fluoro-phenylamino)-6-methyl-5-oxo-1,2,3,5-tetrahydro-imidazo[1,2-a]pyridin-8-yl]-amide]
3 | 100 | 19 | Cc1c(Nc2ccc(I)cc2F)c(NS(=O)(=O)C2CC2)c2n(c1=O)CCN2 [Example 3A, Cyclopropanesulfonic acid [7-(2-fluoro-4-iodo-phenylamino)-6-methyl-5-oxo-1,2,3,5-tetrahydro-imidazo[1,2-a]pyridin-8-yl]-amide]
4 | 100 | 2880 | Cc1c(Nc2ccc(Br)cc2F)c(NS(=O)(=O)C2(CC(O)CO)CC2)c2n(c1=O)CCN2 (centres unmarked) [Example 4A, 1-(2,3-Dihydroxy-propyl)-cyclopropanesulfonic acid [7-(4-bromo-2-fluoro-phenylamino)-6-methyl-5-oxo-1,2,3,5-tetrahydro-imidazo[1,2-a]pyridin-8-yl]-amide]
5 | 100 | 293 | Cc1c(Nc2ccc(I)cc2F)c(NS(=O)(=O)C2(CC(O)CO)CC2)c2n(c1=O)CCN2 (centres unmarked) [Example 5A, 1-(2,3-Dihydroxy-propyl)-cyclopropanesulfonic acid [7-(2-fluoro-4-iodo-phenylamino)-6-methyl-5-oxo-1,2,3,5-tetrahydro-imidazo[1,2-a]pyridin-8-yl]-amide]
6 | 100 | 1380 | Cc1c(Nc2ccc(I)cc2F)c(NS(=O)(=O)C2CC(O)C2)c2n(c1=O)CCN2 (centres unmarked) [Example 6A, 3-Hydroxy-cyclobutanesulfonic acid [7-(2-fluoro-4-iodo-phenylamino)-6-methyl-5-oxo-1,2,3,5-tetrahydro-imidazo[1,2-a]pyridin-8-yl]-amide]
7 | 99 | 26 | Cc1c(Nc2ccc(I)cc2F)c(NS(=O)(=O)C2CC2)c2n(c1=O)CCO2 [Example 7A, Cyclopropanesulfonic acid [7-(2-fluoro-4-iodo-phenylamino)-6-methyl-5-oxo-2,3-dihydro-5H-oxazolo[3,2-a]pyridin-8-yl]-amide]
8 | 100 | 122 | Cc1c(Nc2ccc(I)cc2F)c(NS(=O)(=O)C2CC2CO)c2n(c1=O)CCO2 (centres unmarked) [Example 8A, 2-Hydroxymethyl-cyclopropanesulfonic acid [7-(2-fluoro-4-iodo-phenylamino)-6-methyl-5-oxo-2,3-dihydro-5H-oxazolo[3,2-a]pyridin-8-yl]-amide]
9 | 100 | 19 | Cc1c(Nc2ccc(I)cc2F)c(NS(=O)(=O)C2(CCO)CC2)c2n(c1=O)CCO2 [Example 9A, 1-(2-Hydroxy-ethyl)-cyclopropanesulfonic acid [7-(2-fluoro-4-iodo-phenylamino)-6-methyl-5-oxo-2,3-dihydro-5H-oxazolo[3,2-a]pyridin-8-yl]-amide]
10 | 100 | 33 | Cc1c(Nc2ccc(I)cc2F)c(NS(=O)(=O)C2(CC(O)CO)CC2)c2n(c1=O)CCO2 (centres unmarked) [Example 10A, 1-(2,3-Dihydroxy-propyl)-cyclopropanesulfonic acid [7-(2-fluoro-4-iodo-phenylamino)-6-methyl-5-oxo-2,3-dihydro-5H-oxazolo[3,2-a]pyridin-8-yl]-amide]
11 | 100 | 20 | Cc1c(Nc2ccc(I)cc2F)c(NS(=O)(=O)C2(CO)CC2)c2n(c1=O)CCO2 [Example 11A, 1-Hydroxymethyl-cyclopropanesulfonic acid [7-(2-fluoro-4-iodo-phenylamino)-6-methyl-5-oxo-2,3-dihydro-5H-oxazolo[3,2-a]pyridin-8-yl]-amide]
12 | 100 | 11 | Cc1c(Nc2ccc(I)cc2F)c(NS(=O)(=O)C2(CCCO)CC2)c2n(c1=O)CCO2 [Example 12A, 1-(3-Hydroxy-propyl)-cyclopropanesulfonic acid [7-(2-fluoro-4-iodo-phenylamino)-6-methyl-5-oxo-2,3-dihydro-5H-oxazolo[3,2-a]pyridin-8-yl]-amide]
13 | 100 | 122 | Cc1c(Nc2ccc(I)cc2F)c(NS(=O)(=O)C2CC(O)C2)c2n(c1=O)CCO2 (centres unmarked) [Example 13A, 3-Hydroxy-cyclobutanesulfonic acid [7-(2-fluoro-4-iodo-phenylamino)-6-methyl-5-oxo-2,3-dihydro-5H-oxazolo[3,2-a]pyridin-8-yl]-amide]
14 | 100 | 16 | Cc1c(Nc2ccc(I)cc2F)c(NS(=O)(=O)C2CCC2)c2n(c1=O)CCO2 [Example 14A, Cyclobutanesulfonic acid [7-(2-fluoro-4-iodo-phenylamino)-6-methyl-5-oxo-2,3-dihydro-5H-oxazolo[3,2-a]pyridin-8-yl]-amide]
15 | 100 | 1530 | Cc1c(Nc2ccc(I)cc2F)c(NS(=O)(=O)C2CC(C(CO)CO)C2)c2n(c1=O)CCO2 (centres unmarked) [Example 15A, 3-(1,3-dihydroxypropan-2-yl)-N-(7-(2-fluoro-4-iodophenylamino)-6-methyl-5-oxo-3,5-dihydro-2H-oxazolo[3,2-a]pyridin-8-yl)cyclobutane-1-sulfonamide]
16 | 100 | 1300 | Cc1c(Nc2ccc(I)cc2F)c(NS(=O)(=O)CC2(C)COC2)c2n(c1=O)CCO2 [Example 16A, N-(7-(2-fluoro-4-iodophenylamino)-6-methyl-5-oxo-3,5-dihydro-2H-oxazolo[3,2-a]pyridin-8-yl)-1-(3-methyloxetan-3-yl)methanesulfonamide]
17 |  | 1730 | Cc1c(Nc2ccc(I)cc2F)c(NS(=O)(=O)CCC2COC2)c2n(c1=O)CCO2 [Example 17A, N-(7-(2-fluoro-4-iodophenylamino)-6-methyl-5-oxo-3,5-dihydro-2H-oxazolo[3,2-a]pyridin-8-yl)-2-(oxetan-3-yl)ethanesulfonamide]
18 | 100 | 4260 | Cc1c(Nc2ccc(I)cc2F)c(NS(=O)(=O)CCC(CO)CO)c2n(c1=O)CCO2 [Example 18A, N-(7-(2-fluoro-4-iodophenylamino)-6-methyl-5-oxo-3,5-dihydro-2H-oxazolo[3,2-a]pyridin-8-yl)-4-hydroxy-3-(hydroxymethyl)butane-1-sulfonamide]
19 | 100 | 0.3 | Cc1c(Nc2ccc(I)cc2F)c(NS(=O)(=O)C2CC2)c2n(c1=O)CCS2 [Example 19A, Cyclopropanesulfonic acid [7-(2-fluoro-4-iodo-phenylamino)-6-methyl-5-oxo-2,3-dihydro-5H-thiazolo[3,2-a]pyridin-8-yl]-amide]
20 | 100 | 54 | Cc1c(Nc2ccc(I)cc2F)c(NS(=O)(=O)C2(CC(O)CO)CC2)c2n(c1=O)CCS2 (centres unmarked) [Example 20A, 1-(2,3-Dihydroxy-propyl)-cyclopropanesulfonic acid [7-(2-fluoro-4-iodo-phenylamino)-6-methyl-5-oxo-2,3-dihydro-5H-thiazolo[3,2-a]pyridin-8-yl]-amide]
